For one series, the target named is T1, RXFP1 (Homo sapiens, UniProt Q9HBX9).
T1 construct: OVCAR5 cells expressing endogenous RXFP1; endogenous in cells; host or cells: OVCAR5
T1 sequence (Q9HBX9 1-757): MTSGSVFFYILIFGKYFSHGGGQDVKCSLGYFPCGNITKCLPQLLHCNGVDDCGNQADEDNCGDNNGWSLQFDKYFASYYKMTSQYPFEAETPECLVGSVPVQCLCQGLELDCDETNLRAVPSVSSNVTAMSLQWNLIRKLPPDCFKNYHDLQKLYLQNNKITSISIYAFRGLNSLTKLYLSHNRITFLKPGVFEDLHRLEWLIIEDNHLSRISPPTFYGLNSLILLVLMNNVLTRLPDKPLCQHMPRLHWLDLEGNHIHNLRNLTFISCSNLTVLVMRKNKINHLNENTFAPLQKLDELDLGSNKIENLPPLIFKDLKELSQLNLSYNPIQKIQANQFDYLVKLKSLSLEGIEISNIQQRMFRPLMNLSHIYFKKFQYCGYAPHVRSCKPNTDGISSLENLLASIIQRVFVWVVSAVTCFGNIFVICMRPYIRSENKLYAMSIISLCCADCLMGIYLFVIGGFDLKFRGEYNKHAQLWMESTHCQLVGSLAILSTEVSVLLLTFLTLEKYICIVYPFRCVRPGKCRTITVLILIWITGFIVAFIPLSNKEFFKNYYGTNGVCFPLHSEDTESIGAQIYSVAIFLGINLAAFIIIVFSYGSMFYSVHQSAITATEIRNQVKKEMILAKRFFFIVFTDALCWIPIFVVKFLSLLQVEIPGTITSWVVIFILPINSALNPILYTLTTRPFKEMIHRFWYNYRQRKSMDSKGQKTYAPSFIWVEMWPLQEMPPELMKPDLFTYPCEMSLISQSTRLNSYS
Description: OVCAR5 cAMP assay (HTRF). Type of series: cell-based. As to conditions: for EC50: OVCAR 5 cells expressing endogenous RXFP1, cAMP readout; for Emax: OVCAR 5 cells, maximal cAMP relative to H2-relaxin. Summed up:
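Endogenous RXFP1 in OVCAR5 cells, pretreated 40 min at 37° C with 1 mM IBMX, then exposed to increasing peptide concentrations in serum-free medium for 30 min at 37° C. cAMP read by HTRF; EC50 by variable-slope sigmoidal fit, Emax as % of H2-relaxin maximal cAMP in same run.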
Background: cAMP levels reflect the balance of adenylyl cyclase and phosphodiesterase activity.

Series [1] in a line: Solubility testing in buffer. Type of series: physicochemical. As to conditions: target solubility 10.0 mg/ml. As to the method:
Prior to the testing of solubility of a peptide batch, its purity (HPLC-UV) was determined.
Acetate Buffer 50 mM pH4.5: 0.75 g C2H3C02Na,3H2O (Sigma S7545)+0.35 ml CH3CO2H 100% solution dissolved in Millipore water, adjusted to pH with diluted (1:1) CH3CO2H and diluted to 250 ml with Millipore water.
In a 4 ml Ependorph vial, an accurately weighed sample of compound was diluted in study media to obtain target concentration of 2, 6 or 10 mg/ml of pure compound. The sample vials were shacked (rock 'roll shaker) for ˜19 h. 300 μL aliquots were filtered through a Millipore “Solvinert” plate (0.45 μm-PTFE hydrophilic).
pH was measured with a micro electrode
Waters Acquity UPLC System with DAD detector
Column: Waters Peptide Column CSH C18 (130 Å; 1.7 μm; 50*2.1 mm)
Column temperature: 60° C.
Full loop (about 5 μL)—overfill factor 5
Weak et Strong wash: H2O/ACN (75/25; V/V); Seal wash: H2O/IsOH (95/5; V/V). Mobile phase:
Solvent A: 0.05% TFA in H2O; Solvent B: 0.035% TFA in CH3CN
Gradient: from 0 to 12 min B=2% to 60%, from 12 to 14 min B=60% to 100%. Column washing 100% B 1 min, column equilibration 2% B 2.5 min.
UV detector: wavelength: 220 nm.

The mark [2] stands for this setting: acetate buffer 50 mM pH 4.5, read-out: Solubility Acetate buffer pH 4.5.
The mark [3] stands for this setting: phosphate buffer 50 mM pH 7.4, read-out: Solubility phosphate buffer pH 7.4.

We go through three molecules from patent publication US11725036B2, “Modified lipidated relaxin B chain peptides and their therapeutic use” (Sanofi, priority 2018, dated 2023).

≈ marks a conversion by molar mass, not a printed value. Where two headings read alike, the source gives them in different places. Starred links: 1 amine or outer side, 2 acyl side, 3 side chain; linkers in the order of their positions; H or OH if unused. Non-standard residues stand in square brackets, D forms with d. Residues, ends and D or L forms follow the SMILES beside them. Groups on a side chain read outwards from the residue. *: point of attachment. X1 = CCCCCCCCCCCCCCCC(=O)N[C@@H](CCC(=O)N[C@@H](CCC(=O)N[C@@H](CCC(=O)NCCCOCCOCCOCCCNC(=O)CCC(=O)NCCCOCCOCCOCCCNC(=O)CCC(=O)NCCCOCCOCCOCCCN*)C(=O)O)C(=O)O)C(=O)O; X2 = CCCCCCCCCCCCCCCC(=O)N[C@@H](CCC(=O)N[C@@H](CCC(=O)N[C@@H](CCC(=O)NCCCOCCOCCOCCCNC(=O)CCC(=O)NCCCOCCOCCOCCCN*)C(=O)O)C(=O)O)C(=O)O; Suc = O=C(CCC(=O)[*:2])[*:1]; αMeK = C[C@](N)(CCCCN)C(=O)O; Aib = CC(C)(N)C(=O)O

What is called EC50 is the midpoint of the concentration-response curve. Read a high EC50 as a less potent agent. Broadly, the Emax is the maximal effect, on the per cent scale that the assay sets. As usually defined, the solubility is the concentration that dissolves in the medium under given conditions. As to `CCCCCCCCCCCCCCCC(=O)N[C@@H](CCC(=O)N[C@@H](CCC(=O)N[C@@H](CCC(=O)NCCCOCCOCCOCCCNC(=O)CCC(=O)NCCCOCCOCCOCCCNC(=O)CCC(=O)NCCCC[C@H](NC(=O)CNC(=O)[C@H](CCC(=O)O)NC(=O)C(C)(C)NC(=O)C(C)(C)NC(=O)[C@@H](NC(=O)[C@H](CCCCNC(C)=O)NC(=O)[C@H](C)NC(=O)[C@H](CCCNC(=N)N)NC(=O)[C@@H](NC(=O)[C@H](CCCCN)NC(=O)[C@H](CCC(=O)O)NC(=O)[C@H](CCCNC(=N)N)NC(=O)CNC(=O)[C@H](CCC(=O)O)NC(=O)[C@H](CC(C)C)NC(C)=O)C(C)C)[C@@H](C)CC)C(=O)N[C@@H](CO)C(=O)N[C@H](C(=O)N[C@@H](Cc1c[nH]c2ccccc12)C(=O)N[C@@H](CO)C(=O)N[C@H](CCCCN)C(=O)N[C@@H](CCCNC(=N)N)C(=O)N[C@@H](CCCCN)C(=O)N[C@@H](CCCCNC(C)=O)C(N)=O)[C@@H](C)O)C(=O)O)C(=O)O)C(=O)O` [compound 18] (Ac-LEGREKVRAK(Ac)I[Aib][Aib]EGK([Suc-X2])STWS[dK]RKK(Ac)-NH2), on RXFP1, a half-maximal effect (EC50) was put at 1.54 nM and the Emax amounted to 92%. In addition, the solubility in series [1] (setting [2]) stood at 6.75 mg/mL (≈ 1630 µM). Further, in series [1] (setting [3]), the solubility was 6.58 mg/mL (≈ 1590 µM).
For `CCCCCCCCCCCCCCCC(=O)N[C@@H](CCC(=O)N[C@@H](CCC(=O)N[C@@H](CCC(=O)NCCCOCCOCCOCCCNC(=O)CCC(=O)NCCCOCCOCCOCCCNC(=O)CCC(=O)NCCCOCCOCCOCCCNC(=O)CCC(=O)NCCCC[C@H](NC(=O)CNC(=O)[C@H](CCC(=O)O)NC(=O)[C@@H](NC(=O)C(C)(C)NC(=O)[C@@H](NC(=O)[C@H](CCCCNC(C)=O)NC(=O)[C@H](C)NC(=O)[C@H](CCCNC(=N)N)NC(=O)[C@@H](NC(=O)[C@H](CCCCN)NC(=O)[C@H](CCC(=O)O)NC(=O)[C@H](CCCNC(=N)N)NC(=O)CNC(=O)[C@H](CCC(=O)O)NC(=O)[C@H](CC(C)C)NC(C)=O)C(C)C)[C@@H](C)CC)[C@@H](C)CC)C(=O)N[C@@H](CO)C(=O)N[C@H](C(=O)N[C@@H](Cc1c[nH]c2ccccc12)C(=O)N[C@@H](CO)C(=O)NC(C)(C)C(=O)N[C@@H](CCCNC(=N)N)C(=O)N[C@@H](CCCCN)C(=O)N[C@@H](CCCCNC(C)=O)C(N)=O)[C@@H](C)O)C(=O)O)C(=O)O)C(=O)O` [compound 70] (Ac-LEGREKVRAK(Ac)I[Aib]IEGK([Suc-X1])STWS[Aib]RKK(Ac)-NH2), on RXFP1, the midpoint of the response, the EC50, lay at 1.34 nM and the Emax was 94%. The solubility in series [1] (setting [2]) came to 8.24 mg/mL (≈ 1860 µM). The solubility in series [1] (setting [3]) came to 9.68 mg/mL (≈ 2190 µM).
At RXFP1, `CCCCCCCCCCCCCCCC(=O)N[C@@H](CCC(=O)N[C@@H](CCC(=O)N[C@@H](CCC(=O)NCCCOCCOCCOCCCNC(=O)CCC(=O)NCCCOCCOCCOCCCNC(=O)CCC(=O)NCCCOCCOCCOCCCNC(=O)CCC(=O)NCCCC[C@H](NC(=O)CNC(=O)[C@H](CCC(=O)O)NC(=O)C(C)(C)NC(=O)C(C)(C)NC(=O)[C@@H](NC(=O)[C@H](CCCCNC(C)=O)NC(=O)[C@H](C)NC(=O)[C@H](CCCNC(=N)N)NC(=O)[C@@H](NC(=O)[C@H](Cc1ccccc1)NC(=O)[C@H](CCC(=O)O)NC(=O)[C@H](CCCNC(=N)N)NC(=O)CNC(=O)[C@H](CCC(=O)O)NC(=O)[C@H](CC(C)C)NC(C)=O)C(C)C)[C@@H](C)CC)C(=O)N[C@@H](CO)C(=O)N[C@H](C(=O)N[C@@H](Cc1ccccc1)C(=O)N[C@@H](CO)C(=O)N[C@@](C)(CCCCN)C(=O)N[C@@H](CCCNC(=N)N)C(=O)N[C@@H](C)C(=O)N[C@@H](CCCCNC(C)=O)C(N)=O)[C@@H](C)O)C(=O)O)C(=O)O)C(=O)O` [compound 24] (Ac-LEGREFVRAK(Ac)I[Aib][Aib]EGK([Suc-X1])STFS[αMeK]RAK(Ac)-NH2) yielded an EC50 of 36.4 nM and an Emax of 100%. In addition, in series [1] (setting [2]), the solubility amounted to 0.28 mg/mL (≈ 63.9 µM). In addition, in series [1] (setting [3]), the solubility amounted to 6.93 mg/mL (≈ 1580 µM).
